Measured values taken from the NIST ThermoML archive (doi:10.1016/j.jct.2017.08.004).
± gives the expanded uncertainty stated by the source.

conditions: 415 K; 101.33 kPa; Crystal; Small sample (50 mg) DSC

molar entropy [J/K/mol]	SMILES
318.58 ± 77	OC[C@@H](O)[C@@H](O)[C@H](O)[C@H](O)CO [D-mannitol]
285.72 ± 60	O[C@H]1[C@H](O)[C@@H](O)[C@H](O)[C@@H](O)[C@H]1O [cis-1,2,3,5-trans-4,6-cyclohexanehexol]

same assay, conditions: 415 K; 101.33 kPa; Liquid; Small sample (50 mg) DSC

molar entropy [J/K/mol]	SMILES
397.09 ± 48	OC[C@@H](O)C(O)[C@H](O)CO [D-arabitol]
394.8 ± 120	OC[C@H](O)C(O)[C@@H](O)CO [L-(-)-arabitol]
342.55 ± 62	OC[C@@H](O)[C@@H](O)CO [meso-1,2,3,4-butanetetrol]

same assay, conditions: 420 K; 101.33 kPa; Crystal; Small sample (50 mg) DSC

molar entropy [J/K/mol]	SMILES
322.47 ± 78	OC[C@@H](O)[C@@H](O)[C@H](O)[C@H](O)CO [D-mannitol]
289.5 ± 61	O[C@H]1[C@H](O)[C@@H](O)[C@H](O)[C@@H](O)[C@H]1O [cis-1,2,3,5-trans-4,6-cyclohexanehexol]

same assay, conditions: 420 K; 101.33 kPa; Liquid; Small sample (50 mg) DSC

molar entropy [J/K/mol]	SMILES
402.53 ± 49	OC[C@@H](O)C(O)[C@H](O)CO [D-arabitol]
346.8 ± 63	OC[C@@H](O)[C@@H](O)CO [meso-1,2,3,4-butanetetrol]

same assay, conditions: 425 K; 101.33 kPa; Crystal; Small sample (50 mg) DSC

molar entropy [J/K/mol]	SMILES
326.38 ± 79	OC[C@@H](O)[C@@H](O)[C@H](O)[C@H](O)CO [D-mannitol]
293.27 ± 62	O[C@H]1[C@H](O)[C@@H](O)[C@H](O)[C@@H](O)[C@H]1O [cis-1,2,3,5-trans-4,6-cyclohexanehexol]

same assay, conditions: 425 K; 101.33 kPa; Liquid; Small sample (50 mg) DSC

molar entropy [J/K/mol]	SMILES
351 ± 64	OC[C@@H](O)[C@@H](O)CO [meso-1,2,3,4-butanetetrol]

same assay, conditions: 430 K; 101.33 kPa; Crystal; Small sample (50 mg) DSC

molar entropy [J/K/mol]	SMILES
330.31 ± 80	OC[C@@H](O)[C@@H](O)[C@H](O)[C@H](O)CO [D-mannitol]
297.05 ± 63	O[C@H]1[C@H](O)[C@@H](O)[C@H](O)[C@@H](O)[C@H]1O [cis-1,2,3,5-trans-4,6-cyclohexanehexol]

same assay, conditions: 430 K; 101.33 kPa; Liquid; Small sample (50 mg) DSC

molar entropy [J/K/mol]	SMILES
355.15 ± 64	OC[C@@H](O)[C@@H](O)CO [meso-1,2,3,4-butanetetrol]

same assay, conditions: 435 K; 101.33 kPa; Crystal; Small sample (50 mg) DSC

molar entropy [J/K/mol]	SMILES
334.63 ± 81	OC[C@@H](O)[C@@H](O)[C@H](O)[C@H](O)CO [D-mannitol]
300.82 ± 63	O[C@H]1[C@H](O)[C@@H](O)[C@H](O)[C@@H](O)[C@H]1O [cis-1,2,3,5-trans-4,6-cyclohexanehexol]

same assay, conditions: 435 K; 101.33 kPa; Liquid; Small sample (50 mg) DSC

molar entropy [J/K/mol]	SMILES
359.26 ± 65	OC[C@@H](O)[C@@H](O)CO [meso-1,2,3,4-butanetetrol]

same assay, conditions: 440 K; 101.33 kPa; Crystal; Small sample (50 mg) DSC

molar entropy [J/K/mol]	SMILES
304.59 ± 64	O[C@H]1[C@H](O)[C@@H](O)[C@H](O)[C@@H](O)[C@H]1O [cis-1,2,3,5-trans-4,6-cyclohexanehexol]

same assay, conditions: 445 K; 101.33 kPa; Crystal; Small sample (50 mg) DSC

molar entropy [J/K/mol]	SMILES
308.35 ± 65	O[C@H]1[C@H](O)[C@@H](O)[C@H](O)[C@@H](O)[C@H]1O [cis-1,2,3,5-trans-4,6-cyclohexanehexol]

same assay, conditions: 450 K; 101.33 kPa; Crystal; Small sample (50 mg) DSC

molar entropy [J/K/mol]	SMILES
312.12 ± 66	O[C@H]1[C@H](O)[C@@H](O)[C@H](O)[C@@H](O)[C@H]1O [cis-1,2,3,5-trans-4,6-cyclohexanehexol]

same assay, conditions: 450 K; 101.33 kPa; Liquid; Small sample (50 mg) DSC

molar entropy [J/K/mol]	SMILES
463.49 ± 110	OC[C@@H](O)[C@@H](O)[C@H](O)[C@H](O)CO [D-mannitol]

same assay, conditions: 455 K; 101.33 kPa; Crystal; Small sample (50 mg) DSC

molar entropy [J/K/mol]	SMILES
315.89 ± 67	O[C@H]1[C@H](O)[C@@H](O)[C@H](O)[C@@H](O)[C@H]1O [cis-1,2,3,5-trans-4,6-cyclohexanehexol]

same assay, conditions: 455 K; 101.33 kPa; Liquid; Small sample (50 mg) DSC

molar entropy [J/K/mol]	SMILES
469.61 ± 110	OC[C@@H](O)[C@@H](O)[C@H](O)[C@H](O)CO [D-mannitol]

same assay, conditions: 460 K; 101.33 kPa; Crystal; Small sample (50 mg) DSC

molar entropy [J/K/mol]	SMILES
319.66 ± 67	O[C@H]1[C@H](O)[C@@H](O)[C@H](O)[C@@H](O)[C@H]1O [cis-1,2,3,5-trans-4,6-cyclohexanehexol]

same assay, conditions: 460 K; 101.33 kPa; Liquid; Small sample (50 mg) DSC

molar entropy [J/K/mol]	SMILES
475.21 ± 110	OC[C@@H](O)[C@@H](O)[C@H](O)[C@H](O)CO [D-mannitol]

same assay, conditions: 465 K; 101.33 kPa; Crystal; Small sample (50 mg) DSC

molar entropy [J/K/mol]	SMILES
323.43 ± 68	O[C@H]1[C@H](O)[C@@H](O)[C@H](O)[C@@H](O)[C@H]1O [cis-1,2,3,5-trans-4,6-cyclohexanehexol]

same assay, conditions: 465 K; 101.33 kPa; Liquid; Small sample (50 mg) DSC

molar entropy [J/K/mol]	SMILES
480.73 ± 120	OC[C@@H](O)[C@@H](O)[C@H](O)[C@H](O)CO [D-mannitol]

same assay, conditions: 470 K; 101.33 kPa; Crystal; Small sample (50 mg) DSC

molar entropy [J/K/mol]	SMILES
327.21 ± 69	O[C@H]1[C@H](O)[C@@H](O)[C@H](O)[C@@H](O)[C@H]1O [cis-1,2,3,5-trans-4,6-cyclohexanehexol]

same assay, conditions: 470 K; 101.33 kPa; Liquid; Small sample (50 mg) DSC

molar entropy [J/K/mol]	SMILES
486.2 ± 120	OC[C@@H](O)[C@@H](O)[C@H](O)[C@H](O)CO [D-mannitol]

same assay, conditions: 475 K; 101.33 kPa; Crystal; Small sample (50 mg) DSC

molar entropy [J/K/mol]	SMILES
331 ± 70	O[C@H]1[C@H](O)[C@@H](O)[C@H](O)[C@@H](O)[C@H]1O [cis-1,2,3,5-trans-4,6-cyclohexanehexol]

same assay, conditions: 475 K; 101.33 kPa; Liquid; Small sample (50 mg) DSC

molar entropy [J/K/mol]	SMILES
491.61 ± 120	OC[C@@H](O)[C@@H](O)[C@H](O)[C@H](O)CO [D-mannitol]

same assay, conditions: 480 K; 101.33 kPa; Crystal; Small sample (50 mg) DSC

molar entropy [J/K/mol]	SMILES
334.8 ± 71	O[C@H]1[C@H](O)[C@@H](O)[C@H](O)[C@@H](O)[C@H]1O [cis-1,2,3,5-trans-4,6-cyclohexanehexol]

same assay, conditions: 480 K; 101.33 kPa; Liquid; Small sample (50 mg) DSC

molar entropy [J/K/mol]	SMILES
496.96 ± 120	OC[C@@H](O)[C@@H](O)[C@H](O)[C@H](O)CO [D-mannitol]

same assay, conditions: 485 K; 101.33 kPa; Crystal; Small sample (50 mg) DSC

molar entropy [J/K/mol]	SMILES
338.61 ± 71	O[C@H]1[C@H](O)[C@@H](O)[C@H](O)[C@@H](O)[C@H]1O [cis-1,2,3,5-trans-4,6-cyclohexanehexol]

same assay, conditions: 485 K; 101.33 kPa; Liquid; Small sample (50 mg) DSC

molar entropy [J/K/mol]	SMILES
502.25 ± 120	OC[C@@H](O)[C@@H](O)[C@H](O)[C@H](O)CO [D-mannitol]

same assay, conditions: 490 K; 101.33 kPa; Crystal; Small sample (50 mg) DSC

molar entropy [J/K/mol]	SMILES
342.46 ± 72	O[C@H]1[C@H](O)[C@@H](O)[C@H](O)[C@@H](O)[C@H]1O [cis-1,2,3,5-trans-4,6-cyclohexanehexol]

same assay, conditions: 490 K; 101.33 kPa; Liquid; Small sample (50 mg) DSC

molar entropy [J/K/mol]	SMILES
507.49 ± 120	OC[C@@H](O)[C@@H](O)[C@H](O)[C@H](O)CO [D-mannitol]

same assay, conditions: 495 K; 101.33 kPa; Crystal; Small sample (50 mg) DSC

molar entropy [J/K/mol]	SMILES
346.55 ± 73	O[C@H]1[C@H](O)[C@@H](O)[C@H](O)[C@@H](O)[C@H]1O [cis-1,2,3,5-trans-4,6-cyclohexanehexol]

same assay, conditions: 510 K; 101.33 kPa; Liquid; Small sample (50 mg) DSC

molar entropy [J/K/mol]	SMILES
453.9 ± 96	O[C@H]1[C@H](O)[C@@H](O)[C@H](O)[C@@H](O)[C@H]1O [cis-1,2,3,5-trans-4,6-cyclohexanehexol]

same assay, conditions: 515 K; 101.33 kPa; Liquid; Small sample (50 mg) DSC

molar entropy [J/K/mol]	SMILES
458.89 ± 97	O[C@H]1[C@H](O)[C@@H](O)[C@H](O)[C@@H](O)[C@H]1O [cis-1,2,3,5-trans-4,6-cyclohexanehexol]

same assay, conditions: 520 K; 101.33 kPa; Liquid; Small sample (50 mg) DSC

molar entropy [J/K/mol]	SMILES
463.79 ± 98	O[C@H]1[C@H](O)[C@@H](O)[C@H](O)[C@@H](O)[C@H]1O [cis-1,2,3,5-trans-4,6-cyclohexanehexol]

same assay, conditions: 525 K; 101.33 kPa; Liquid; Small sample (50 mg) DSC

molar entropy [J/K/mol]	SMILES
468.65 ± 99	O[C@H]1[C@H](O)[C@@H](O)[C@H](O)[C@@H](O)[C@H]1O [cis-1,2,3,5-trans-4,6-cyclohexanehexol]

same assay, conditions: 530 K; 101.33 kPa; Liquid; Small sample (50 mg) DSC

molar entropy [J/K/mol]	SMILES
473.46 ± 100	O[C@H]1[C@H](O)[C@@H](O)[C@H](O)[C@@H](O)[C@H]1O [cis-1,2,3,5-trans-4,6-cyclohexanehexol]

same assay, conditions: 535 K; 101.33 kPa; Liquid; Small sample (50 mg) DSC

molar entropy [J/K/mol]	SMILES
478.23 ± 100	O[C@H]1[C@H](O)[C@@H](O)[C@H](O)[C@@H](O)[C@H]1O [cis-1,2,3,5-trans-4,6-cyclohexanehexol]

same assay, conditions: 540 K; 101.33 kPa; Liquid; Small sample (50 mg) DSC

molar entropy [J/K/mol]	SMILES
482.95 ± 100	O[C@H]1[C@H](O)[C@@H](O)[C@H](O)[C@@H](O)[C@H]1O [cis-1,2,3,5-trans-4,6-cyclohexanehexol]

same assay, conditions: Crystal; DTA

SMILES	Normal melting temperature [°C]
OC[C@H](O)C(O)[C@@H](O)CO [L-(-)-arabitol]	96.70 ± 0.61
O[C@H]1[C@H](O)[C@@H](O)[C@H](O)[C@@H](O)[C@H]1O [cis-1,2,3,5-trans-4,6-cyclohexanehexol]	224.58 ± 0.61
OC[C@@H](O)[C@@H](O)CO [meso-1,2,3,4-butanetetrol]	121.67 ± 0.61

Results, then the compound that gave them:

Normal melting temperature [°C]	SMILES
99.23 ± 0.61	OC[C@@H](O)C(O)[C@H](O)CO [D-arabitol]
167.47 ± 0.61	OC[C@@H](O)[C@@H](O)[C@H](O)[C@H](O)CO [D-mannitol]
